Measurements reported in patent publication US4549988A, “3H-2-Benzazepines” (Hoffmann-La Roche Inc., priority 1983, dated 1985).

Legend:
[1] = tested on: metrazol convulsive seizures; assay: antimetrazol test (oral compound, protection from metrazol-induced convulsive seizures); assay type: in vivo; settings: Mus musculus, 1 h, mice, one hour before metrazol s.c., Miller-Tainter method
Protocol: Periodically a metrazol standardization test precedes the assay to ascertain the quantity of metrazol, administered to control mice, sufficient to induce convulsive seizures in all animals. This is usually 125 mg/kg. In the antimetrazol test, a compound is administered orally to groups of four mice at various dose levels. One hour later, metrazol (at a dose level previously determined in the standardization test) is administered subcutaneously and the animals are observed for protection from convulsive seizures. Results are recorded as the number of animals protected against convulsions. The dose at which 50% of the animals are protected from convulsive seizures is expressed as the ED50. On active compounds, 8 animals employed per dose group. The ED50 is calculated by the Miller-Tainter method (Proc.Soc.Exp.Med. and Bio., 57, 261, 1944).

[2] = Toxicity, 24 hr. LD50 (PO); settings: in vivo
^3 H--Imipramine Binding = assay: imipramine binding assay (3H-imipramine, rat cortex homogenate); parameters: species or system Sprague Dawley male rats; settings: 15 minutes at room temperature, nonspecific binding by 10^-3 M imipramine
Protocol: IMIPRAMINE BINDING ASSAY METHOD
Sprague Dawley male rats (180 g) are decapitated and the brains immediately placed on ice. Cortex is dissected and homogenized in 8 volumes of 0.25M sucrose. Homogenate is centrifuged at 2900 rpm (1000×g) in a Sorvall RCLB centrifuge with a SM 24 head. Supernatant is decanted and polytronized for 60 seconds using a Brinkmann Polytron (Model PT-10) at setting 5. Dilutions of imipramine hydrochloride are made in ehtanol (1:5). Each assay sample contains: 1.8 ml of Krebs Ringer Buffer, 20 μl of imipramine or other drugs and 20 μl of ^3 H-imipramine ([…]). The ^3 H-imipramine is from New England Nuclear #NET 576, 20-40 curies/millimole. Imipramine (10^-3 M) is used to define nonspecific binding. Incubation is for 15 minutes at room temperature. Samples are then put in ice bath for 5 minutes. Each sample is filtered on a 45-place manifold (E. Sandbek Co., Airville, Pa.). Filter is a Whatman GF/B. Filters are placed in 13 ml of aquasol and shaken for 2 hours, then the radioactivity trapped on the filter is determined by liquid scintillation spectrometry.

SMILES | ED50 [1] | LD50 at 24 h [2] | IC50 (^3 H--Imipramine Binding)
[O-][N+]1=C(c2ccccc2)c2cc(Cl)ccc2C=CC1 [8-Chloro-1-phenyl-3H-2-benzazepine-2-oxide] | 5.2 mg/kg | > 1000 mg/kg | –
Cl.Cl.NCC#CC1=CCN=C(c2ccccc2F)c2cc(Cl)ccc21 [8-Chloro-5-(1-amino-2-propyn-3-yl)-1-(2-fluorophenyl)-3H-2-benzazepine dihydrochloride] | 3 mg/kg | 500 mg/kg | 20 µM
Cl.Cl.NCC#CC1=CCN=C(c2ccccc2)c2cc(Cl)ccc21 [8-Chloro-5-(1-amino-2-propyn-3-yl)-1-phenyl-3H-2-benzazepine dihydrochloride] | 32 mg/kg | 500 mg/kg | 11 µM
CN(C)CC#CC1=CCN=C(c2ccccc2F)c2cc(Cl)ccc21.Cl.Cl [8-Chloro-5-(1-dimethylamino-2-propyn-3-yl)-1-(2-fluorophenyl)-3H-2-benzazepine dihydrochloride] | 19 mg/kg | > 1000 mg/kg | –
CN(C)CCCN1c2ccccc2CCc2ccccc21 [Imipramine, reference compound] | – | – | 7.1 µM
